In patent US20040034028A1, “4-(biphenylcarbonylamino)piperidine derivatives as mtp inhibitors” (priority 2000, published 2004):
pIC50: −log10 of the molar value.

Assays:
[1] = biological target: T1, microsomal triglyceride transfer protein (MTP) (Mesocricetus auratus, UniProt P55158); test: Inhibition of the activity of MTP (transfer of labelled triglyceride, SPA); format: biochemical, golden hamster; conditions: hamster liver MTP, [3H]-trioleine donor liposomes, biot-LDL acceptor, 18-24 hours at 37° C.; read-out: IC50, concentration which allows a 50% inhibition of MTP
T1 construct: The supernatant containing the soluble MTP is dialysed; from tissue; host or cells: golden hamster liver microsomes
T1 sequence (P55158 19-895): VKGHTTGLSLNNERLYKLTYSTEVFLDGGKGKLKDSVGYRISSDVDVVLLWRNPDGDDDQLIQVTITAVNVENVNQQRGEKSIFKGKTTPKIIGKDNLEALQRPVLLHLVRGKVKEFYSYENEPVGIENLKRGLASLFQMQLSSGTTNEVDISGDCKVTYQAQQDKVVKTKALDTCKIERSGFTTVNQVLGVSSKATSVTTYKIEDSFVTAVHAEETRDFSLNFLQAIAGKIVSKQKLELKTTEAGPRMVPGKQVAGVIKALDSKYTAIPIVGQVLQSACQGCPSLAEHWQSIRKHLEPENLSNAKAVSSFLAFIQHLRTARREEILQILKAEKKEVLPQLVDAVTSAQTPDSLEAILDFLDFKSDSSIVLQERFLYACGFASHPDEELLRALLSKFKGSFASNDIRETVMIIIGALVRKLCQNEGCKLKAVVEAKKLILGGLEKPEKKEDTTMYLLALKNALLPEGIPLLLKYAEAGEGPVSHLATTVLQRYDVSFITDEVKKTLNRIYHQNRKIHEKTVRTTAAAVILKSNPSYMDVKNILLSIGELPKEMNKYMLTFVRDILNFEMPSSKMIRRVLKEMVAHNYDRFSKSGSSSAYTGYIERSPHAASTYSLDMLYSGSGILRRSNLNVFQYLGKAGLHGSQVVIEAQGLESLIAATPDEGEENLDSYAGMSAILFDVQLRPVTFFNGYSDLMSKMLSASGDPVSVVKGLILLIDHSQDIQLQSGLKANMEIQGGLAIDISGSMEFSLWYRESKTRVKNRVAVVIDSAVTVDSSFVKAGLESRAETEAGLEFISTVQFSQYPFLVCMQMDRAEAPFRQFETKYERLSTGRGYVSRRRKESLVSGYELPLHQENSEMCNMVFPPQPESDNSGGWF
Method: Analysis of th inhibition of the activity of MTP The inhibition of the activity of microsomal triglyceride transfer protein MTP) was tested using the following protocal.
The inhibition of the activity of MTP with a compound may be quantified by observing the inhibition of the transfer of a labeled triglyceride, from a donor particle to an acceptor particle, in the presence of MTP. The procedure for preparing MTP is based on the method by Wetterau and Zilversmit (Biochem. Biophys. Acta (1986) 875 610). A few grams of golden hamster liver are taken and then rinsed several times in a 250 mM sucrose solution at 0° C. All the following steps proceed at +4° C. A 50% homogenate in 250 mM sucrose is prepared using a Teflon mill and then centrifuged for 10 minutes at 10 000×g at +4° C. The supernatant is then centrifuged at 105 000×g for 75 minutes at +4° C. The supematant is removed and the microsomal pellet is taken up in 3 ml (per gram of starting liver) of 150 mM pH 8.0 Tris/HCl. 1 ml aliquot fractions are stored at −80° C. until use.
After thawing a fraction of microsomes (1 ml), 12 ml of refrigerated 50 mM Tris/HCl, 50 mM KCl, 5 mM MgCl2, pH 7.4 buffers and 1.2 ml of deoxycholate (0.54% in water) are added. After incubating for 30 minutes at +4° C. with gentle agitation, the suspension is centrifuged at 105 000×g for 75 minutes. The supernatant containing the soluble MTP is dialysed against 150 mM Tris/HCl, 40 mM NaCl, 1 mM EDTA, 0.02% sodium azide, pH 7.4 buffer (5 times one litre over 2-3 days). […]
The acceptor particles are biotinylated low-density lipoproteins (biot-LDL). […] After incubating for 18-24 hours at 37° C. the reaction is quenched by adding 100 μl of Amersham SPA (Scintillation Proximity Assay) beads coupled to steptavidin and the radioactivity is counted using a Top Count (Packard) at least one hour later. The inhibition of the transfer of triglycerides by a compound is reflected by a reduction in the radioactivity transferred. The percentage of inhibition for a given compound is determined relative to controls which contain no compounds in the reaction mixture. […]

[2] = tested on: secretion of apo B in Hep G2 cells; test: Inhibition of the secretion of apo B in the Hep G2 human cell line (ELISA); format: cell-based; conditions: HepG2, 24 hours incubation, sandwich ELISA for human apo B, read-out: IC50, concentration which produces a 50% inhibition of the secretion of apo B in the Hep G2 cells
Method: Analysis of the secretion of apo B in the Hep G2 human cell line:
The activity of a compound according to the invention may be evaluated by measuring the inhibition of the secretion of apo B in Hep G2 cells.
The Hep G2 cells (ECACC—number 85011430) are used as a model in the study of the in vitro hepatic secretion of lipoproteins (Dixon J. and Ginsberg H.—J. Lipid. Res.—1993, 34:167-179).
The Hep G2 cells are cultured in a Dulbecco's modified Eagle medium containing 10% foetal calf serum (DMEM and FCS—Gibco) in 96-well plates in an atmosphere of 5% carbon dioxide for 24 hours (about 70% confluence).
The test compounds are dissolved at 2 or 10 mM in dimethyl sulphoxide (DMSO). Serial dilutions (1:3.16) are performed in DMSO and added (1:200—Robot Multim Beckman) to the growth medium (200 microlitres) and finally incubated for 24 hours in the various wells containing the Hep G2 cells.
The 24-hour culture supernatant diluted to 1:5 (phosphate-buffered saline: PBS containing 1% bovine serum albumin) is tested according to a sandwich ELISA method which is specific for human apo B.
The results are expressed in terms of IC50, namely the concentration which produces a 50% inhibition of the secretion of apo B in the Hep G2 cells.

pIC50 [1]	pIC50 [2]	melting point [°C]	Compound
7.19	8.52	170	Cc1cccc(CN2CCC(NC(=O)c3ccccc3-c3ccc(C(F)(F)F)cc3)CC2)n1 [A-5, 1-[(6-methyl-2-pyridyl)methyl]-4-[(4′-trifluoromethyl-2-biphenyl)carbonylamino]-piperidine]
7.08	7.13	–	Cc1ncccc1CN1CCC(NC(=O)c2ccccc2-c2ccc(C(F)(F)F)cc2)CC1 [A-7, 1-[(2-methyl-3-pyridyl)methyl]-4-[(4′-trifluoromethyl-2-biphenyl)carbonylamino]-piperidine]
7.59	8.70	210	O=C(NC1CCN(Cc2ccc3ccccc3n2)CC1)c1ccccc1-c1ccc(C(F)(F)F)cc1 [A-8, 1-(2-quinolylmethyl)-4-[(4′-trifluoromethyl-2-biphenyl)carbonylamino]-piperidine]
